Columns and labels:
[1] = test system: NQO1 mRNA in BEAS-2B cells; assay: Beas2B NQO1 mRNA cell based assay; set-up: species or system human; settings: Homo sapiens, BEAS-2B, 24 h, 24 h compound treatment, increase in NQO1 mRNA vs vehicle (0.1% DMSO), read-out: EC50
Summary of the method: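 BEAS-2B human bronchial epithelial cells exposed to compound for 24 h at 37 °C, 5% CO2. NQO1 mRNA measured by one-step TaqMan RT-qPCR on unpurified lysates, normalized to β-actin; relative expression by ΔΔCT method.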

[2] = target: human KEAP1 (N-term, residues 321-609) (Homo sapiens, UniProt Q14145); assay: biochemical;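 note: fluorescence polarization competition assay of Kelch domain binding to NRF2, 12-point 1:3 dilution series from 10 µM, read after 1 h at room temperature, floor 10 nM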
human KEAP1 (N-term, residues 321-609), sequence (Q14145 321-609): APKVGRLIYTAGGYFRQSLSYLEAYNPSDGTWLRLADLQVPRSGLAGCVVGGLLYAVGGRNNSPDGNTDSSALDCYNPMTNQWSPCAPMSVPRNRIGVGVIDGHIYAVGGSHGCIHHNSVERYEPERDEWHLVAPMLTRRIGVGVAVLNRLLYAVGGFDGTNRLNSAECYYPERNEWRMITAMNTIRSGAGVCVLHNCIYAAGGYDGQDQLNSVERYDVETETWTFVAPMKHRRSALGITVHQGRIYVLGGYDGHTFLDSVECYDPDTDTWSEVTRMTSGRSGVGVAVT

For `Cc1nnc(COc2ccc(Cl)c3c2[C@@H](CN2CC4(CC4)CC2=O)N(C(=O)[C@@H]2CCCC[C@]2(C)C(=O)O)CC3)n1C1CC1` [Example 177, (1S,2R)-2-((S)-5-chloro-8-((4-cyclopropyl-5-methyl-4H-1,2,4-triazol-3-yl)methoxy)-1-((6-oxo-5-azaspiro[2.4]heptan-5-yl)methyl)-1,2,3,4-tetrahydroisoquinoline-2-carbonyl)-1-methylcyclohexane-1-carboxylic acid], the EC50 [1] was 2.2 nM and the IC50 [2] was 5.3 nM.
For `Cn1nnc(COc2ccc(F)c3c2[C@@H](CN2CCCC2=O)N(C(=O)[C@@H]2CCCC[C@]2(C)C(=O)O)CC3)c1C(F)(F)F` [Example 178, (1S,2R)-2-((S)-5-fluoro-8-((1-methyl-5-(trifluoromethyl)-1H-1,2,3-triazol-4-yl)methoxy)-1-((2-oxopyrrolidin-1-yl)methyl)-1,2,3,4-tetrahydroisoquinoline-2-carbonyl)-1-methylcyclohexane-1-carboxylic acid], the EC50 [1] was 13 nM and the IC50 [2] was 6.4 nM.
Work on `Cc1nnc(COc2ccc(Cl)c3c2[C@@H](CN2CC4(CC4)CC2=O)N(C(=O)[C@@H]2CCCC[C@]2(C)C(=O)O)CC3)n1C` [Example 179, (1S,2R)-2-((S)-5-chloro-8-((4,5-dimethyl-4H-1,2,4-triazol-3-yl)methoxy)-1-((6-oxo-5-azaspiro[2.4]heptan-5-yl)methyl)-1,2,3,4-tetrahydroisoquinoline-2-carbonyl)-1-methylcyclohexane-1-carboxylic acid] yielded an EC50 [1] of 4.1 nM and an IC50 [2] of 5.3 nM.
`C[C@]1(C(=O)O)CCC[C@H]1C(=O)N1CCc2c(Cl)ccc(OCc3nnn4c3CCCC4)c2[C@H]1CN1CC2(CC2)CC1=O` [Example 180, (1S,2R)-2-((S)-5-chloro-1-((6-oxo-5-azaspiro[2.4]heptan-5-yl)methyl)-8-((4,5,6,7-tetrahydro-[1,2,3]triazolo[1,5-a]pyridin-3-yl)methoxy)-1,2,3,4-tetrahydroisoquinoline-2-carbonyl)-1-methylcyclopentane-1-carboxylic acid] was tested, and the EC50 [1] was 1.1 nM and the IC50 [2] was 7.6 nM.
For `C[C@]1(C(=O)O)CCCC[C@H]1C(=O)N1CCc2c(Cl)ccc(OCc3nnn4c3CCC4)c2[C@H]1CN1CC2(CC2)CC1=O` [Example 181, (1S,2R)-2-((S)-5-chloro-8-((5,6-dihydro-4H-pyrrolo[1,2-c][1,2,3]triazol-3-yl)methoxy)-1-((6-oxo-5-azaspiro [2.4]heptan-5-yl)methyl)-1,2,3,4-tetrahydroisoquinoline-2-carbonyl)-1-methylcyclohexane-1-carboxylic acid], the EC50 [1] was 0.69 nM and the IC50 [2] was 5.1 nM.
Work on `C[C@]1(C(=O)O)CCCC[C@H]1C(=O)N1CCc2c(F)ccc(OCc3nnn4c3CCCC4)c2[C@H]1CN1CC2(CC2)CC1=O` [Example 182, (1S,2R)-2-((S)-5-fluoro-1-((6-oxo-5-azaspiro[2.4]heptan-5-yl)methyl)-8-((4,5,6,7-tetrahydro-[1,2,3]triazolo[1,5-a]pyridin-3-yl)methoxy)-1,2,3,4-tetrahydroisoquinoline-2-carbonyl)-1-methylcyclohexane-1-carboxylic acid] yielded an EC50 [1] of 0.83 nM and an IC50 [2] of 5.1 nM.
`C[C@]1(C(=O)O)CCCC[C@H]1C(=O)N1CCc2c(Cl)ccc(OCc3nnc4n3CCC4)c2[C@H]1CN1CC2(CC2)CC1=O` [Example 183, (1S,2R)-2-((S)-5-chloro-8-((6,7-dihydro-5H-pyrrolo[2,1-c][1,2,4]triazol-3-yl)methoxy)-1-((6-oxo-5-azaspiro [2.4]heptan-5-yl)methyl)-1,2,3,4-tetrahydroisoquinoline-2-carbonyl)-1-methylcyclohexane-1-carboxylic acid] was tested, and the EC50 [1] was 5.8 nM and the IC50 [2] was 5.4 nM.
In the case of `Cn1c(COc2ccc(Cl)c3c2[C@@H](CN2CC4(CC4)CC2=O)N(C(=O)[C@@H]2CCCC[C@]2(C)C(=O)O)CC3)nnc1C1CC1` [Example 184, (1S,2R)-2-((S)-5-chloro-8-((5-cyclopropyl-4-methyl-4H-1,2,4-triazol-3-yl)methoxy)-1-((6-oxo-5-azaspiro[2.4]heptan-5-yl)methyl)-1,2,3,4-tetrahydroisoquinoline-2-carbonyl)-1-methylcyclohexane-1-carboxylic acid], the EC50 [1] is reported as 5.6 nM and the IC50 [2] is reported as 2.9 nM.
Work on `Cn1cnc(COc2ccc(Cl)c3c2[C@@H](CN2CC4(CC4)CC2=O)N(C(=O)[C@@H]2CCCC[C@]2(C)C(=O)O)CC3)c1` [Example 185, (1S,2R)-2-((S)-5-chloro-8-((1-methyl-1H-imidazol-4-yl)methoxy)-1-((6-oxo-5-azaspiro[2.4]heptan-5-yl)methyl)-1,2,3,4-tetrahydroisoquinoline-2-carbonyl)-1-methylcyclohexane-1-carboxylic acid] yielded an EC50 [1] of 56 nM and an IC50 [2] of 6.2 nM.
Compound `C[C@]1(C(=O)O)CCCC[C@H]1C(=O)N1CCc2c(Cl)ccc(OCc3nnc4n3CCCC4)c2[C@H]1CN1CC2(CC2)CC1=O` [Example 186, (1S,2R)-2-((S)-5-chloro-1-((6-oxo-5-azaspiro[2.4]heptan-5-yl)methyl)-8-((5,6,7,8-tetrahydro-[1,2,4]triazolo[4,3-a]pyridin-3-yl)methoxy)-1,2,3,4-tetrahydroisoquinoline-2-carbonyl)-1-methylcyclohexane-1-carboxylic acid] has an EC50 [1] of 4.7 nM and an IC50 [2] of 5.6 nM.
`C[C@]1(C(=O)O)CCCC[C@H]1C(=O)N1CCc2c(Cl)ccc(O[C@H]3CCN(S(C)(=O)=O)C3)c2[C@H]1CN1CC2(CC2)CC1=O` [Example 187, (1S,2R)-2-((S)-5-chloro-8-(((S)-1-(methylsulfonyl)pyrrolidin-3-yl)oxy)-1-((6-oxo-5-azaspiro[2.4]heptan-5-yl)methyl)-1,2,3,4-tetrahydroisoquinoline-2-carbonyl)-1-methylcyclohexane-1-carboxylic acid] was tested, and the EC50 [1] was 43 nM and the IC50 [2] was 6 nM.
`CC(=O)N1CC[C@H](Oc2ccc(Cl)c3c2[C@@H](CN2CC4(CC4)CC2=O)N(C(=O)[C@@H]2CCCC[C@]2(C)C(=O)O)CC3)C1` [Example 188, (1S,2R)-2-((S)-8-(((S)-1-acetylpyrrolidin-3-yl)oxy)-5-chloro-1-((6-oxo-5-azaspiro [2.4]heptan-5-yl)methyl)-1,2,3,4-tetrahydroisoquinoline-2-carbonyl)-1-methylcyclohexane-1-carboxylic acid] showed an EC50 [1] of 7.9 nM and an IC50 [2] of 4.9 nM.
`C[C@]1(C(=O)O)CCCC[C@H]1C(=O)N1CCc2c(Cl)ccc(OCc3nnn4c3COCC4)c2[C@H]1CN1CC2(CC2)CC1=O` [Example 189, (1S,2R)-2-((S)-5-chloro-8-((6,7-dihydro-4H-[1,2,3]triazolo[5,1-c][1,4]oxazin-3-yl)methoxy)-1-((6-oxo-5-azaspiro[2.4]heptan-5-yl)methyl)-1,2,3,4-tetrahydroisoquinoline-2-carbonyl)-1-methylcyclohexane-1-carboxylic acid] showed an EC50 [1] of 0.27 nM and an IC50 [2] of 5 nM.
For `Cn1nnc(COc2cccc3c2[C@@H](CN2CCCC2=O)N(C(=O)[C@@H]2CCCC[C@]2(C)C(=O)O)CC3)c1C(F)(F)F` [Example 190, (1S,2R)-1-methyl-2-((S)-8-((1-methyl-5-(trifluoromethyl)-1H-1,2,3-triazol-4-yl)methoxy)-1-((2-oxopyrrolidin-1-yl)methyl)-1,2,3,4-tetrahydroisoquinoline-2-carbonyl)cyclohexane-1-carboxylic acid], the EC50 [1] was 8.6 nM and the IC50 [2] was 5.6 nM.
`Cn1nnc(COc2ccc(Br)c3c2[C@@H](CN2CCCC2=O)N(C(=O)[C@@H]2CCCC[C@]2(C)C(=O)O)CC3)c1C(F)(F)F` [Example 191, (1S,2R)-2-((S)-5-bromo-8-((1-methyl-5-(trifluoromethyl)-1H-1,2,3-triazol-4-yl)methoxy)-1-((2-oxopyrrolidin-1-yl)methyl)-1,2,3,4-tetrahydroisoquinoline-2-carbonyl)-1-methylcyclohexane-1-carboxylic acid] gave an EC50 [1] of 2.1 nM and an IC50 [2] of 5.2 nM.
`C[C@]1(C(=O)O)CCCC[C@H]1C(=O)N1CCc2c(Cl)ccc(OCc3nnn(C4COC4)c3C(F)F)c2[C@H]1CN1CC2(CC2)CC1=O` [Example 192, (1S,2R)-2-((S)-5-chloro-8-((5-(difluoromethyl)-1-(oxetan-3-yl)-1H-1,2,3-triazol-4-yl)methoxy)-1-((6-oxo-5-azaspiro[2.4]heptan-5-yl)methyl)-1,2,3,4-tetrahydroisoquinoline-2-carbonyl)-1-methylcyclohexane-1-carboxylic acid] gave an EC50 [1] of 3.8 nM and an IC50 [2] of 8.5 nM.
`C[C@@H]1CCC(=O)N1C[C@@H]1c2c(OCc3nnn(C)c3C(F)F)ccc(Cl)c2CCN1C(=O)[C@@H]1CCCC[C@]1(C)C(=O)O` [Example 194, (1S,2R)-2-((S)-5-chloro-8-((5-(difluoromethyl)-1-methyl-1H-1,2,3-triazol-4-yl)methoxy)-1-(((R)-2-methyl-5-oxopyrrolidin-1-yl)methyl)-1,2,3,4-tetrahydroisoquinoline-2-carbonyl)-1-methylcyclohexane-1-carboxylic acid] showed an EC50 [1] of 12 nM and an IC50 [2] of 7.9 nM.
With `C[C@H]1CCC(=O)N1C[C@@H]1c2c(OCc3nnn(C)c3C(F)F)ccc(Cl)c2CCN1C(=O)[C@@H]1CCCC[C@]1(C)C(=O)O` [Example 195, (1S,2R)-2-((S)-5-chloro-8-((5-(difluoromethyl)-1-methyl-1H-1,2,3-triazol-4-yl)methoxy)-1-(((S)-2-methyl-5-oxopyrrolidin-1-yl)methyl)-1,2,3,4-tetrahydroisoquinoline-2-carbonyl)-1-methylcyclohexane-1-carboxylic acid] the EC50 [1] was 6.8 nM and the IC50 [2] was 13 nM.
With `C[C@]1(C(=O)O)CCCC[C@H]1C(=O)N1CCc2c(Cl)ccc(OCc3nnn4c3CCCC4)c2[C@H]1CN1CCOCC1=O` [Example 196] the EC50 [1] was 0.97 nM and the IC50 [2] was 5.6 nM.
